According to patent US11945787B2, “Substituted imidazoles for preventing and/or treating cell or tissue necrosis” (Ela Pharma Ltd, priority 2015, dated 2024):
Where a SMILES comes first, the peptide text is derived from it. The star is where a group is joined. MeOSuc = COC(=O)CCC(=O)*; CH2Cl = ClC*

Assays:
elastase-like activity [1] = assay: Elastase-like activity in lysates of KCN-treated U-937 cells (MAAPV substrate); type: biochemical, human; conditions: for induction of elastase-like enzymatic activity in intact cells: treatment of intact cells
[2] = tested on: C57BL/6J mice, closed head trauma; assay: Closed head injury (traumatic brain injury) in mice; type: in vivo, mouse; conditions: for neurological severity score (NSS): 100 μg into cisterna magna 1 min after trauma, 1 hour post injury; for space of necrotic tissue, TTC staining: 100 μg into cisterna magna, untreated traumatized 50%
Protocol: The closed head injury method was used to determine the effect of the elastase inhibitor on the development of brain necrosis and on the neurological status assessed using the neurological severity score (NSS). NSS test was performed 1 hour after trauma. During NSS test, various reflexes, ability to move, beam balance, beam walk and other behavior parameters like seeking and exiting from a cycle were monitored. Development of necrosis was measured by assessing necrotic space in brain slices stained with 2,3,5-triphenyl-2H-tetrazolium chloride (TTC).
C57BL/6J mice weighing 40+4 g (mean±SD) were used in the study. A weight-drop device was used to deliver a shock to the scull resulting in a controlled cerebral injury. Impact was delivered by a silicone-coated 5 mm metal tip extruding from a platform that falls down a frame. This model of cranial injury has been used in previous studies [Feldman Z et al., J Neurosurg (1995) 83:1060-1066; Shapira Y et al., J Neurosurg Anesthesiol (1995) 7:17-25].). All animal procedures and care techniques were approved by the Ben-Gurion University of the Negev Committee for the Ethical Care and Use of Animals in Research.
Mice were prepared for surgery by anesthetization with isoflurane and allowed to breathe spontaneously. Maintenance of adequate anesthesia for the experimental procedure was confirmed by loss of corneal reflexes. Once the corneal reflexes were abolished, a midline scalp incision was made and the scalp and underlying muscles were moved laterally. Closed head trauma (CHT) was delivered to the skull over the frontal portion of the left cerebral hemisphere. 1 minute after the trauma 100 μg of elastase inhibitor II or III in its vehicle (DMSO solution), were injected intracerebraspinaly by direct delivery into the cisterna magna. The vehicle itself was previously found to have no effect.
In addition to the wild type C57BL/6J mice, neutrophil elastase knockout mice strain B6.129X1-Elane were also examined. All procedures were approved by the Ethics Committee of Ben-Gurion University of Negev.

PC12 cells [3] = assay: Rescue of KCN-treated PC12 cells, XTT viability up to 48 h; type: cell-based, rat; conditions: 5 h KCN, then full DMEM 24 or 48 hours; FIG. 7C
PC12 cells [4] = assay: KCN-induced necrosis of PC12 cells, LDH release; type: cell-based, rat; conditions: for KCN-induced necrotic cell death assessed by LDH release: PC12, KCN 5 hours, FIGS. 6, 7A-B; for inhibition of necrosis induced by KCN at high concentrations / effect of inhibitor by itself on PC-12 cells: up to 300 μM; for effect of inhibitor by itself on PC-12 cells: without KCN; for inhibition at 0.0001 µM / inhibition at 0.001 µM / inhibition at 0.01 µM / inhibition at 0.1 µM / inhibition at 1 µM: Rattus norvegicus, PC-12, 5 h, KCN, PC12, LDH release (Table 5); for inhibition at 0.0001 µM: 0.1 nM, read-out: % protection at 0.1 nM; for inhibition at 0.001 µM: 1 nM, read-out: % protection at 1 nM; for inhibition at 0.01 µM: 10 nM, read-out: % protection At 10 nM; for inhibition at 0.1 µM: read-out: % protection at 0.1 μM; for inhibition at 1 µM: read-out: % protection at 1 μM
Protocol: The rat pheochromocytoma PC12 cell line was propagated in DMEM medium (Beit Haemek, Israel), supplemented with 5% heat-inactivated calf serum, 10% heat-inactivated horse serum, 2 mM L-glutamine, 100 U/ml penicillin and 100 μg/ml streptomycin. PC12 cells in logarithmic phase were seeded at a concentration of 1.2×10^5/well in 96-well plates and incubated overnight.
Thereafter, the cells were washed twice and maintained in RPMI-1640 (U-937cells) and DMEM (PC-12 cells) glucose-free medium, supplemented with 2 mM pyruvate and 10% dialyzed FCS for one hour. Then cells were treated with or without KCN (Merck, Germany) at the indicated concentrations for 7 hours (U-937 cells), or for 5 hours (PC12 cells).
Elastase inhibitors II (MeOSuc-AAPA-CMK) and elastase inhibitor III (MeOSuc-AAPV-CMK) were purchased from Calbiochem-Novabiochem, USA. Compound Gly-Phe diazomethylketone was purchased from MP Biomedicals, USA. All the compounds disclosed in Table 1 hereinabove were purchased from ChemDiv, San Diego, CA. The compounds were dissolved in DMSO and were administered 30 min before addition of the cell death inducer. The final concentration of DMSO, added to all samples, was 0.1%, which had no effect by itself siRNA and cell transfection
The amount of LDH released from lysed cells is a sensitive measure of cell death. Necrotic cell death was measured in 96-well plates using Promega CytoTox 96 LDH assay kit. LDH content from the cells lysed in 0.1% Triton X-100 for 10 min was used as an index of total LDH. The LDH released in culture medium was used as an index of necrotic cell death and the percentage from total LDH was calculated. The protection by the inhibitor was calculated based on comparing percentage of LDH release in the presence and in the absence of the inhibitor. The inhibitors were also added to totals, blanks and controls. Absorbance at 490 nm was measured by ELISA reader (BioTec).
These compounds were tested for their ability to inhibit necrosis induced by KCN in PC12 cells. The necrotic mode of cell death in this system was validated as previously described. PC12 cells were challenged with KCN as described above. The protective results of the compounds against KCN-induced necrosis assessed using LDH release method are shown below in Table 5. The IC50 values of these inhibitors is in the range of tens to single nanomolar.

[5] = tested on: C57BL/6J mice, acetaminophen hepatotoxicity; assay: APAP-induced liver toxicity in mice; type: in vivo, mouse; conditions: IP 4 hours after APAP 300 mg/kg; measured 24 hours; dose dependent
Protocol: Wild type C57BL/6J mice weighing 23+3 grams were used, 6 mice per treatment. The mice were obtained from Harlan (Israel). All animal procedures and care techniques were approved by the Ben-Gurion University of the Negev Committee for the Ethical Care and Use of Animals in Research. Mice were fast for 16h prior to administration of a single intraperitoneal (i. p.) dose of acetaminophen (N-acetyl-p-aminophenol) APAP (300 mg/kg). 4 hours after the APAP injection, the mice were injected i. p. with the tested compound, dissolved in vehicle (20% DMSO in PBS). The control mice were injected with the vehicle only. 24h after APAP injection, the mice were sacrificed and blood collected from the heart. Heparin was used as an anti-clotting additive for plasma collection. The plasma samples were centrifuged at 4000 g at room temperature for 10 min. The supernatant was collected for measurement of ALT and AST levels. The enzyme levels were measured with an autoanalyzer in Soroka's Biochemistry Medical Center.

U-937 cells = assay: siRNA transfection, KCN-induced necrosis of U-937 cells, LDH release; type: cell-based, human; conditions: U-937, 7 hours KCN; FIG. 4A
elastase-like activity [6] = assay: Elastase-like activity in lysates of siRNA-treated cells exposed to KCN; type: cell-based; conditions: KCN 10 mM 30 minutes; FIG. 5A
Cathepsin C = Cathepsin C activity in lysates of siRNA-treated cells exposed to KCN; type: cell-based; conditions: KCN 10 mM 30 minutes; FIG. 5B
PC12 cells [7] = assay: siRNA transfection, KCN-induced necrosis of PC12 cells, LDH release; type: cell-based, rat; conditions: PC12, 5 hours KCN; FIG. 4C

Question: For CCOC(=O)[C@H]1O[C@@H]1C(=O)N[C@@H](CC(C)C)C(=O)NCCC(C)C [E-64d], which “effect on elastase-like proteolytic activity” value (elastase-like activity [1]; lysates after 10 mM KCN 30 min, data not shown) is on record?
Answer: no effect

Question: Which results are given for COC(=O)CCC(=O)N[C@@H](C)C(=O)N[C@@H](C)C(=O)N1CCC[C@H]1C(=O)N[C@@H](C)C(=O)CCl [EI II, MeOSuc-AAPA-CMK] (MeOSuc-AAPA-CH2Cl)?
Answer: neurological severity score (NSS) [2]: significantly reduce neurological damage; space of necrotic tissue, TTC staining [2]: 25 % of the damaged hemisphere; induction of elastase-like enzymatic activity in intact cells (elastase-like activity [1]): abrogated the induction; cell viability (XTT) after KCN treatment (PC12 cells [3]): protective effect; KCN-induced necrotic cell death assessed by LDH release (PC12 cells [4]): inhibited in a dose dependent manner; inhibition of necrosis induced by KCN at high concentrations (PC12 cells [4]): significantly inhibited necrosis; effect of inhibitor by itself on PC-12 cells (PC12 cells [4]): inactive by themselves

Question: How did the “neurological severity score (NSS)” value [2] turn out when COC(=O)CCC(=O)N[C@@H](C)C(=O)N[C@@H](C)C(=O)N1CCC[C@H]1C(=O)N[C@H](C(=O)CCl)C(C)C [EI III, MeOSuc-AAPV-CMK] (MeOSuc-AAPV-CH2Cl) was run?
Answer: significantly reduce neurological damage

Question: What about the “space of necrotic tissue, TTC staining” value [2] of the same compound?
Answer: 25 % of the damaged hemisphere

Question: What about the “inhibition of necrosis-induced elastase-like activity” value (elastase-like activity [1]; 100 μM) of the same compound?
Answer: completely inhibited

Question: And the “effect on elastase activity of control cells” value (elastase-like activity [1]; 100 μM, control cells)?
Answer: slight effect

Question: What about the IC50 (elastase-like activity [1]; lysates after 10 mM KCN 30 min, FIG. 3, read-out: IC50 of inhibition of necrosis-induced elastase-like activity) of the same compound?
Answer: 2740 nM

Question: And the “induction of elastase-like enzymatic activity in intact cells” value (elastase-like activity [1])?
Answer: abrogated the induction

Question: And the “KCN-induced necrotic cell death assessed by LDH release” value (PC12 cells [4])?
Answer: inhibited in a dose dependent manner

Question: And the “inhibition of necrosis induced by KCN at high concentrations” value (PC12 cells [4])?
Answer: significantly inhibited necrosis

Question: What about the “effect of inhibitor by itself on PC-12 cells” value (PC12 cells [4]) of the same compound?
Answer: inactive by themselves

Question: Which results are given for O=C(c1csc(N2CCCCC2)n1)N1CCCC1 [Z601-4253, (2-(piperidin-1-yl)thiazol-4-yl)(pyrrolidin-1-yl)methanone]?
Answer: inhibition at 0.0001 µM (PC12 cells [4]): 29%; inhibition at 0.001 µM (PC12 cells [4]): 34%; inhibition at 0.01 µM (PC12 cells [4]): 61%; inhibition at 0.1 µM (PC12 cells [4]): 74%; inhibition at 1 µM (PC12 cells [4]): 100%; ALT level in blood [5]: significantly reduced; AST level in blood [5]: significantly reduced

Question: Which results are given for CCN1CCN(c2c(C)c(C)nc3ncnn23)CC1 [Z606-8336, 7-(4-ethylpiperazin-1-yl)-5,6-dimethyl-[1,2,4]triazolo[1,5-a]pyrimidine]?
Answer: inhibition at 0.0001 µM (PC12 cells [4]): 29%; inhibition at 0.001 µM (PC12 cells [4]): 35%; inhibition at 0.01 µM (PC12 cells [4]): 54%; inhibition at 0.1 µM (PC12 cells [4]): 64%; inhibition at 1 µM (PC12 cells [4]): 75%

Question: What does the source list for CC(C)c1cc(C2CCCN2C(=O)C2CC2)no1 (stereo not drawn) [Z632-2266, cyclopropyl(2-(5-isopropylisoxazol-3-yl)pyrrolidin-1-yl)methanone]?
Answer: inhibition at 0.0001 µM (PC12 cells [4]): 13%; inhibition at 0.001 µM (PC12 cells [4]): 22%; inhibition at 0.01 µM (PC12 cells [4]): 46%; inhibition at 0.1 µM (PC12 cells [4]): 78%; inhibition at 1 µM (PC12 cells [4]): 93%

Question: With CNC(=O)c1n[nH]c2c1CCCCCC2 [Z632-6109, N-methyl-4,5,6,7,8,9-hexahydro-1H-cycloocta[c]pyrazole-3-carboxamide] as the compound, how does the inhibition at 0.0001 µM (PC12 cells [4]) read?
Answer: 26%

Question: What about the inhibition at 0.001 µM (PC12 cells [4]) of the same compound?
Answer: 25%

Question: And the inhibition at 0.01 µM (PC12 cells [4])?
Answer: 40%

Question: And the inhibition at 0.1 µM (PC12 cells [4])?
Answer: 70%

Question: And the inhibition at 1 µM (PC12 cells [4])?
Answer: 81%

Question: For CC(C)C[C@H](NC(=O)N[C@H](C(=O)N[C@@H](CCC(N)=O)C(=O)N[C@@H](C)C=O)[C@@H]1CCNC(=N)N1)C(=O)O [elastatinal, reference compound], which “KCN-induced necrotic cell death assessed by LDH release” value (PC12 cells [4]) is on record?
Answer: no protective effect

Question: Which results are given for “siRNA for CELA1: siRNA for CELA1, CGGCAACATGCTGGTCCTTTA (SEQ ID NO: 2), Qiagen (listed as DNA, chemistry not given here)”?
Answer: protection against KCN-induced necrosis, LDH release (U-937 cells): partial protection; elastase-like activity of cell lysates (elastase-like activity [6]): stable and significant decrease; Cathepsin C activity of cell lysates (Cathepsin C): no effect; protection against cyanide induced cell death, LDH release (PC12 cells [7]): significant protective effect

Question: Which results are given for “siRNA for CELA3A: siRNA for CELA3A, CTGCCTTTGGCTGCAACTTCA (SEQ ID NO: 3), Qiagen (listed as DNA, chemistry not given here)”?
Answer: protection against KCN-induced necrosis, LDH release (U-937 cells): partial protection; elastase-like activity of cell lysates (elastase-like activity [6]): stable and significant decrease; Cathepsin C activity of cell lysates (Cathepsin C): no effect; protection against cyanide induced cell death, LDH release (PC12 cells [7]): significant protective effect

Question: What does the source list for “siRNA for Cathepsin C: siRNA for Cathepsin C silencing, ATGATCTGCATCAGTTGTAAA (SEQ ID NO: 1), Qiagen (listed as DNA, chemistry not given here)”?
Answer: protection against KCN-induced necrosis, LDH release (U-937 cells): protective effect; Cathepsin C activity of cell lysates (Cathepsin C): stable and significant decrease; protection against cyanide induced cell death, LDH release (PC12 cells [7]): significant protective effect
